Data on 1 molecule can be found in BindingDB's records for patent US20250171467 (Merck Sharp & Dohme, 2025).

The EC50 is the concentration at which the effect is half-maximal. High values mean a need for much substance, low ones an effect from little substance.

The target in the assay is T1, Ceramide glucosyltransferase (Homo sapiens, UniProt Q16739).
T1 sequence (Q16739 whole entry): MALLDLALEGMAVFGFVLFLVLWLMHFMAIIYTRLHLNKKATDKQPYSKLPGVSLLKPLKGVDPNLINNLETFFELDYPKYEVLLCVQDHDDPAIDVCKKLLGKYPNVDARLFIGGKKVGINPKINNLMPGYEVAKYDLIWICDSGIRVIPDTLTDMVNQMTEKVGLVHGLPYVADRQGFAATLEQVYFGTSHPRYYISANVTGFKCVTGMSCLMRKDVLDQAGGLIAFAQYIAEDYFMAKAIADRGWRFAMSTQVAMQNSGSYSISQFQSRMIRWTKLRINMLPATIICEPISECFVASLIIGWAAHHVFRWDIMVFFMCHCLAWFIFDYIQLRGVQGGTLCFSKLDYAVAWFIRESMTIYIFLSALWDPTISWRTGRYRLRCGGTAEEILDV
Put plainly: UDP-Glo Glucosylceramide Synthase Biochemical Assay. As for the experimental part: An aliquot of GCS enzyme (1.5 μg crude golgi preparation, total protein) and titrated test compound were aliquoted to each well and incubated for 30 minutes at room temperature. […] An equivalent volume of substrate mixture was then added to each well. Following a 20 h incubation at room temperature to allow for GCS turnover of substrate, an equal volume of UDP detection reagent (Promega) was added to each well and incubated for an additional 75 minutes at room temperature to simultaneously convert the accumulated UDP product into ATP and generate light in a luciferase reaction. The generated light was detected using a luminometer.

`COc1ccc(-n2nc(C(=O)N3CCCN(CCF)CC3)c3c2CCOC3)cc1` [US20250171467, Compound 11] came in with an EC50 of 12 µM. That is a double-digit micromolar value.
